Results reported in US20200015498A1, “ANIMAL FEED WITH BETA ADRENERGIC AGONIST AND ISOQUINOLINE ALKALOID” (priority 2017, published 2020).

Experiments:
Type in all cases: in vivo
pigs [1] = assay: Second experiment: 4 groups of 50 pigs fed different food and additive combinations for 4 weeks until slaughter day
Text: In the second experimental test, 4 groups of 50 pigs were fed with different food and additive combinations for 4 weeks until slaughter day as presented in the table below. The Isoquinoline alkaloids in the feed of groups 2 and 3 mainly consisted of sanguinarine.

pigs [2] = assay: Sixth experiment: test four repeated with 1310 pigs of a further animal farm
Method: (§1) In most countries of the world, the quality of the carcass (without innards and blood) is determined as of muscle area, fat mm at back, total analysis of fat content etc. for determining the price of the carcass per kg warm or cold carcass weight (depending on country). For this purpose, the animals are scanned in the slaughtering line by means of sensors or image-giving techniques, and the proportion of muscles and the thickness of the backbone are measured and converted into an equation which then calculates the proportion of lean meat in the entire carcass. In the EU, the carcasses can be assigned to different meat quality groups according to the following classification scheme: • S=Highest quality=>60.85% lean-meat • E=Premium Quality=58.75% lean-meat • U=High Quality=>55.9% lean-meat • R=Medium Quality=>53.9% lean-meat • O=Low Quality=>51.1% lean-meat • P=very low Quality=<51.1% lean-meat
(§2) The following animal feed compositions were administered: • AFC1: Corn, maize, soybean meal, vitamine, enzyme and mineral mixture comprising: 17% protein 0.8% lysine • AFC2: Corn, maize, Corn, maize, soybean meal, vitamine, enzyme and mineral mixture comprising: 17% protein, 0.8% lysine and 1 mg isoquinoline alkaloid/kg feed (mainly sanguinarine) • AFC3: Corn, maize, soybean meal, vitamine, enzyme and mineral mixture comprising: 19% protein, 1% lysine and a beta adrenergic agonist (ractopamin as “Paylean®” in recommended dosage (®=reg. trademark of Eli Lilly and Co.) • AFC4: Corn, maize, soybean meal, vitamine, enzyme and mineral mixture comprising: 17% protein, 0.9% lysine, 1 mg isoquinoline alkaloid (mainly sanguinarine)/kg feed and a beta adrenergic agonist (ractopamin as “Paylean®” Paylean in recommended dosage)
(§3) Test four was repeated with 1310 pigs of a further animal farm divided into four groups 1-4, each group comprising 330 pigs. The pigs were held in 11 units of 30 animals. Different groups of pigs were fed with feeds of different compositions as described for the fourth experiment. The following table illustrates meat quality indicators.

pigs [3] = assay: Fifth experiment: test four repeated with 1700 pigs of a different farm
Method: as §1, §2
as §3, with “1700” for “1310”, “different” for “further animal”, “425” for “330”, “in” for “in 11”, “25” for “30”

pigs [4] = assay: Third experiment: meat quality classes of 120 pigs per group fed for the last four weeks until slaughter day
Method: The following table illustrates meat quality indicators obtained for 120 pigs fed for the last four weeks until slaughter day added with a beta adrenergic agonist at recommended dosages of 7.5 mg/kg feed and having a protein enriched feed formulation comparing to 120 other pigs fed during the same time period with the same feed which in addition the beta adrenergic agonist is also added with isoquinoline alkaloids like sanguinarin.
as §1

pigs [5] = assay: Fourth experiment: 1500 pigs in four groups fed AFC1-AFC4, distribution in meat quality classes
Method: as §1
As a rule, during the last 4-week before slaughter day when beta adrenergic agonists are typically administered, an animal feed is administered which not only has a higher protein content but also a higher proportion of muscle-binding amino acids (e.g., lysine). For example, a manufacturer of a beta adrenergic agonist prescribes that the content of the limiting amino acid lysine and threonine in the feed must be about 30% higher than under “standard” conditions when the beta adrenergic agonist is administered. It is, however, known that only 30% of the amino acids added to the feed are resorbed and metabolized, the rest being lost.
The test was performed with 1500 pigs divided into four groups 1-4, each group comprising 375 pigs. The pigs were held in 100 units of 15 animals per unit. Different groups of pigs were fed with feeds of different compositions. The following table illustrates meat quality indicators.
as §2

[6] = class O >51.1% lean-meat, feeds AFC2, AFC3, AFC4, control 4
[7] = class P <51.1% lean-meat, feeds AFC2, AFC3, AFC4, control 0
[8] = class E >58.75 % lean-meat, 120 pigs per group
[9] = class O >51.10 % lean-meat, 120 pigs per group
[10] = class P <51.10 % lean-meat, 120 pigs per group
[11] = class R >53.90 % lean-meat, 120 pigs per group
[12] = class U >55.90 % lean-meat, 120 pigs per group

CC(CCc1ccc(O)cc1)NCC(O)c1ccc(O)cc1 (stereo not drawn) [ractopamine]
Feed conversion ratio (pigs [1]; 4 weeks until slaughter, isoquinoline alkaloids 1 mg/kg feed and/or ractopamin 7.5 mg/kg feed, control 2.78): 2.62 | Daily weight gain (pigs [1]; 4 weeks until slaughter, isoquinoline alkaloids 1 mg/kg feed and/or ractopamin 7.5 mg/kg feed, control 753): 852 g | live mass at slaughter day (pigs [1]; after 4 weeks, isoquinoline alkaloids 1 mg/kg feed and/or ractopamin 7.5 mg/kg feed, soybean 15% (group 2), 17% (group 3), 20% (group 4), control 118): 125.5 kg | Fraction lean meat (pigs [1]; at slaughter, isoquinoline alkaloids 1 mg/kg feed and/or ractopamin 7.5 mg/kg feed, control 54.95): 58.5% | performance (daily weight gain, feed utilization, lean meat content) compared with the control group, in words (pigs [1]; second experiment, groups 2-4 versus group 1): significantly improves performance and increases the lean meat content and the feed utilization | Distribution of slaughtered pigs in meat quality class E (pigs [2]; class E >58.75% lean-meat, feeds AFC2, AFC3, AFC4, control 33): 38% | Distribution of slaughtered pigs in meat quality class O (pigs [2]; [6]): 1% | Distribution of slaughtered pigs in meat quality class P (pigs [2]; [7]): 0% | Distribution of slaughtered pigs in meat quality class R (pigs [2]; class R >53.9% lean-meat, feeds AFC2, AFC3, AFC4, control 11): 3% | Distribution of slaughtered pigs in meat quality class S (pigs [2]; class S >60.85% lean-meat, Group 2 feed AFC2, Group 3 AFC3, Group 4 AFC4, 330 pigs per group, control 30): 40% | Distribution of slaughtered pigs in meat quality class U (pigs [2]; class U >55.9% lean-meat, feeds AFC2, AFC3, AFC4, control 22): 18% | % of all pigs (carcasses classified as S and E quality) (pigs [2]; sixth experiment, control 63%): 78% | Distribution of slaughtered pigs in meat quality class E (pigs [3]; class E >58.75% lean-meat, feeds AFC2, AFC3, AFC4, control 30): 35% | Distribution of slaughtered pigs in meat quality class O (pigs [3]; [6]): 2% | Distribution of slaughtered pigs in meat quality class P (pigs [3]; [7]): 0% | Distribution of slaughtered pigs in meat quality class R (pigs [3]; class R >53.9% lean-meat, feeds AFC2, AFC3, AFC4, control 15): 8% | Distribution of slaughtered pigs in meat quality class S (pigs [3]; class S >60.85% lean-meat, Group 2 feed AFC2, Group 3 AFC3, Group 4 AFC4, 425 pigs per group, control 26): 40% | Distribution of slaughtered pigs in meat quality class U (pigs [3]; class U >55.9% lean-meat, feeds AFC2, AFC3, AFC4, control 25): 15% | % of all pigs (carcasses classified as S and E quality) (pigs [3]; fifth experiment, control 56%): 75% | % of all pigs in meat quality class E (pigs [4]; [8]): 41% | Number of pigs in meat quality class E (pigs [4]; [8]): 49 | % of all pigs in meat quality class O (pigs [4]; [9]): 1% | Number of pigs in meat quality class O (pigs [4]; [9]): 1 | % of all pigs in meat quality class P (pigs [4]; [10]): 0% | Number of pigs in meat quality class P (pigs [4]; [10]): 0 | % of all pigs in meat quality class R (pigs [4]; [11]): 6% | Number of pigs in meat quality class R (pigs [4]; [11]): 7 | % of all pigs in meat quality class S (pigs [4]; class S >60.85 % lean-meat, 120 pigs per group): 33% | Number of pigs in meat quality class S (pigs [4]; class S >60.85 % lean-meat, 120 pigs per group, ractopamin 7.5 mg/kg feed, protein enriched feed): 40 | % of all pigs in meat quality class U (pigs [4]; [12]): 19% | Number of pigs in meat quality class U (pigs [4]; [12]): 23 | numbers of S and E carcass classes as highest value carcasses (pigs [4]; third experiment, sum of classes S and E): 74% | Distribution of slaughtered pigs in meat quality class E (pigs [5]; class E >58.75% lean-meat, feeds AFC2, AFC3, AFC4, control 35): 39% | Distribution of slaughtered pigs in meat quality class O (pigs [5]; [6]): 1% | Distribution of slaughtered pigs in meat quality class P (pigs [5]; class P <51.1% lean-meat, feeds AFC2, AFC3, AFC4, control 1): 0% | Distribution of slaughtered pigs in meat quality class R (pigs [5]; class R >53.9% lean-meat, feeds AFC2, AFC3, AFC4, control 10): 2% | Distribution of slaughtered pigs in meat quality class S (pigs [5]; class S >60.85% lean-meat, Group 2 feed AFC2, Group 3 AFC3, Group 4 AFC4, 375 pigs per group, control 35): 38% | Distribution of slaughtered pigs in meat quality class U (pigs [5]; class U >55.9% lean-meat, feeds AFC2, AFC3, AFC4, control 15): 20% | % of all pigs distributed in classes S and E (pigs [5]; fourth experiment, control 70%): 77%
